Measurements taken from US10556888B2, “Pyrazole compounds or salts thereof, preparation methods therefor, herbicidal compositions and use thereof” (QINGDAO KINGAGROOT CHEMICAL COMPOUNDS CO., LTD, priority 2015, dated 2020).

What was measured:
Assay type in all cases: in vivo
[1] = test system: Echinochloa crus-galli, Scirpus juncoides and Monochoria vaginalis; assay: Resistance tests on the collected weed seeds; details: common rate; seeds collected from Heilongjing and Jiangsu Province of China
Excerpt: The seeds of Echinochloa crus-galli, Scirpus juncoides and Monochoria vaginalis were collected from Heilongjing and Jiangsu Province of China.

[2] = test system: main crop (wheat, corn, rice, soybean, cotton, oilseed, millet and sorghum); assay: Post-emergence test experiment, main crops (Table 2); parameters: key: Level 10: completely dead; Level 9: above 90% growth inhibition rate; Level 8: above 80% growth inhibition rate; Level 7: above 70% growth inhibition rate; Level 6: above 60% growth inhibition rate; Level 5: above 50% growth inhibition rate; Level 4: above 30% growth inhibition rate; Level 3: above 20% growth inhibition rate; Level 2: above 10% growth inhibition rate; Level 1: above 1-10% growth inhibition rate; Level 0: no effect; details: 3 weeks after spraying, greenhouse
Summary of the method: (§1)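 Compounds, dissolved in acetone, mixed with Tween 80 and diluted in water, were sprayed post-emergence onto greenhouse-grown weeds and crops at the 2-3 leaf stage (2-3 weeks post-sowing). Plants then grown 3 more weeks in the greenhouse before evaluation.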

Echinochloa crus-galli = assay: Control experiment, test in post-emergence stage; parameters: key: Level 10: completely dead; Level 9: above 90% growth inhibition rate; Level 8: above 80% growth inhibition rate; Level 7: above 70% growth inhibition rate; Level 6: above 60% growth inhibition rate; Level 5: above 50% growth inhibition rate; Level 4: above 30% growth inhibition rate; Level 3: above 20% growth inhibition rate; Level 2: above 10% growth inhibition rate; Level 1: above 1-10% growth inhibition rate; Level 0: no effect; details: 5-6 leaf stage, 15 g/ha, observe time 25 day
Protocol: (§2) Test in post-emergence stage: seeds of monocotyledonous weeds and corn were put into a plastic pot loaded with soil, covered with 0.5-2 cm soil, and allowed to grow in good greenhouse environment. The test plants were treated at 5-6 leaf stage 4 weeks after sowing. The test compounds of the present invention were dissolved with acetone respectively, then added with tween 80, diluted by a certain amount of water to reach a certain concentration. The solution was sprayed to the plants by a spray tower. The test application rate was 15 g/ha and the observe time was 25 day.

Setaria viridis = assay: Control experiment, test in post-emergence stage; parameters: key: Level 10: completely dead; Level 9: above 90% growth inhibition rate; Level 8: above 80% growth inhibition rate; Level 7: above 70% growth inhibition rate; Level 6: above 60% growth inhibition rate; Level 5: above 50% growth inhibition rate; Level 4: above 30% growth inhibition rate; Level 3: above 20% growth inhibition rate; Level 2: above 10% growth inhibition rate; Level 1: above 1-10% growth inhibition rate; Level 0: no effect; details: 5-6 leaf stage, 15 g/ha, observe time 25 day
Protocol: as §2

Digitaria sanguinalis = assay: Control experiment, test in post-emergence stage; parameters: key: Level 10: completely dead; Level 9: above 90% growth inhibition rate; Level 8: above 80% growth inhibition rate; Level 7: above 70% growth inhibition rate; Level 6: above 60% growth inhibition rate; Level 5: above 50% growth inhibition rate; Level 4: above 30% growth inhibition rate; Level 3: above 20% growth inhibition rate; Level 2: above 10% growth inhibition rate; Level 1: above 1-10% growth inhibition rate; Level 0: no effect; details: 5-6 leaf stage, 15 g/ha, observe time 25 day
Protocol: as §2

Corn = assay: Control experiment, test in post-emergence stage, crop safety; parameters: key: Level 10: completely dead; Level 9: above 90% growth inhibition rate; Level 8: above 80% growth inhibition rate; Level 7: above 70% growth inhibition rate; Level 6: above 60% growth inhibition rate; Level 5: above 50% growth inhibition rate; Level 4: above 30% growth inhibition rate; Level 3: above 20% growth inhibition rate; Level 2: above 10% growth inhibition rate; Level 1: above 1-10% growth inhibition rate; Level 0: no effect; details: 5-6 leaf stage, 15 g/ha, observe time 25 day
Protocol: as §2

[3] = test system: Monocotyledonous and dicotyledonous weed; assay: Post-emergence test experiment, weed control effect (Table 2); parameters: key to weed control effect, Setaria viridis (level) / weed control effect, Rorippa indica (level) / weed control effect, Abutilon theophrasti (level) / weed control effect, Echinochloa crus-galli (level) / weed control effect, Digitaria sanguinalis (level): Level 10: completely dead; Level 9: above 90% growth inhibition rate; Level 8: above 80% growth inhibition rate; Level 7: above 70% growth inhibition rate; Level 6: above 60% growth inhibition rate; Level 5: above 50% growth inhibition rate; Level 4: above 30% growth inhibition rate; Level 3: above 20% growth inhibition rate; Level 2: above 10% growth inhibition rate; Level 1: above 1-10% growth inhibition rate; Level 0: no effect; details: 3 weeks after spraying, greenhouse
Summary of the method: as §1

**Q.** For `CCOC(=O)c1cnn(C)c1S(=O)(=O)NC(=O)Nc1nc(OC)cc(OC)n1` [pyrazosulfuron-ethyl], which “Resistance of the weeds to the herbicide” value [1] is on record?
**A.** resistant

**Q.** For `Cc1nn(C)cc1C(=O)Oc1c(C(=O)c2ccc(S(C)(=O)=O)c(COCC(F)(F)F)c2Cl)c(C)nn1C` [Compound 29], which “effect on crop, corn (level)” value ([2]; 15 g/ha) is on record?
**A.** 0

**Q.** What about the “effect on crop, rice (level)” value ([2]; 15 g/ha) of the same compound?
**A.** 3 (Level 3: above 20% growth inhibition rate)

**Q.** What about the “effect on crop, wheat (level)” value ([2]; 15 g/ha) of the same compound?
**A.** 0

**Q.** And the “Echinochloa crus-galli (activity level)” value (Echinochloa crus-galli)?
**A.** 8 (Level 8: above 80% growth inhibition rate)

**Q.** And the “Setaria viridis (activity level)” value (Setaria viridis)?
**A.** 9 (Level 9: above 90% growth inhibition rate)

**Q.** And the “Digitaria sanguinalis (activity level)” value (Digitaria sanguinalis)?
**A.** 10

**Q.** What about the “Corn (safety, activity level)” value (Corn) of the same compound?
**A.** 0

**Q.** And the “weed control effect, Abutilon theophrasti (level)” value ([3]; 15 g/ha)?
**A.** 8 (Level 8: above 80% growth inhibition rate)

**Q.** And the “weed control effect, Bidens pilosa (level)” value ([3]; 15 g/ha)?
**A.** 5 (Level 5: above 50% growth inhibition rate)

**Q.** And the “weed control effect, Digitaria sanguinalis (level)” value ([3]; 15 g/ha)?
**A.** 9 (Level 9: above 90% growth inhibition rate)

**Q.** And the “weed control effect, Echinochloa crus-galli (level)” value ([3]; 15 g/ha)?
**A.** 8 (Level 8: above 80% growth inhibition rate)

**Q.** What about the “weed control effect, Rorippa indica (level)” value ([3]; 15 g/ha) of the same compound?
**A.** 4 (Level 4: above 30% growth inhibition rate)

**Q.** What about the “weed control effect, Setaria viridis (level)” value ([3]; 15 g/ha) of the same compound?
**A.** 10

**Q.** Which results are given for `COCc1c(S(C)(=O)=O)ccc(C(=O)c2c(C)nn(C)c2O)c1Cl` [A, reference compound]?
**A.** Echinochloa crus-galli (activity level) (Echinochloa crus-galli): 7 (Level 7: above 70% growth inhibition rate); Setaria viridis (activity level) (Setaria viridis): 7 (Level 7: above 70% growth inhibition rate); Digitaria sanguinalis (activity level) (Digitaria sanguinalis): 6 (Level 6: above 60% growth inhibition rate); Corn (safety, activity level) (Corn): 1 (Level 1: above 1-10% growth inhibition rate)

**Q.** For `Cc1nn(C)c(O)c1C(=O)c1ccc(S(C)(=O)=O)c(COCC(F)(F)F)c1Cl` [B, reference compound], which “Echinochloa crus-galli (activity level)” value (Echinochloa crus-galli) is on record?
**A.** 6 (Level 6: above 60% growth inhibition rate)

**Q.** And the “Setaria viridis (activity level)” value (Setaria viridis)?
**A.** 7 (Level 7: above 70% growth inhibition rate)

**Q.** And the “Digitaria sanguinalis (activity level)” value (Digitaria sanguinalis)?
**A.** 5 (Level 5: above 50% growth inhibition rate)

**Q.** What about the “Corn (safety, activity level)” value (Corn) of the same compound?
**A.** 0

**Q.** Which “effect on crop, corn (level)” value ([2]; 30 g/ha) does the source give for `COCc1c(S(C)(=O)=O)ccc(C(=O)c2c(C)nn(C)c2OC(=O)c2cn(C)nc2C)c1Cl` [Compound 26] here?
**A.** 1 (Level 1: above 1-10% growth inhibition rate)

**Q.** What about the “effect on crop, rice (level)” value ([2]; 30 g/ha) of the same compound?
**A.** 5 (Level 5: above 50% growth inhibition rate)

**Q.** What about the “effect on crop, wheat (level)” value ([2]; 30 g/ha) of the same compound?
**A.** 0

**Q.** What about the “Echinochloa crus-galli (activity level)” value (Echinochloa crus-galli) of the same compound?
**A.** 10

**Q.** What about the “Setaria viridis (activity level)” value (Setaria viridis) of the same compound?
**A.** 10

**Q.** And the “Digitaria sanguinalis (activity level)” value (Digitaria sanguinalis)?
**A.** 10

**Q.** And the “Corn (safety, activity level)” value (Corn)?
**A.** 0

**Q.** What about the “weed control effect, Abutilon theophrasti (level)” value ([3]; 30 g/ha) of the same compound?
**A.** 7 (Level 7: above 70% growth inhibition rate)

**Q.** And the “weed control effect, Bidens pilosa (level)” value ([3]; 30 g/ha)?
**A.** 8 (Level 8: above 80% growth inhibition rate)

**Q.** What about the “weed control effect, Digitaria sanguinalis (level)” value ([3]; 30 g/ha) of the same compound?
**A.** 10

**Q.** And the “weed control effect, Echinochloa crus-galli (level)” value ([3]; 30 g/ha)?
**A.** 10

**Q.** And the “weed control effect, Rorippa indica (level)” value ([3]; 30 g/ha)?
**A.** 8 (Level 8: above 80% growth inhibition rate)

**Q.** What about the “weed control effect, Setaria viridis (level)” value ([3]; 30 g/ha) of the same compound?
**A.** 10
